From publication PMC5281649 (European Journal of Nuclear Medicine and Molecular Imaging, 2016)
Like-named read-outs stand apart in the source and are kept apart here.

How the values were obtained:
brain MAO-B enzyme = molecular target: T1, brain MAO-B enzyme (Homo sapiens, UniProt P27338); assay: PET with [11C]-L-deprenyl-D2: brain MAO-B inhibition after repeated oral sembragiline; type: in vivo; conditions: mean (range); for [11C]-L-deprenyl-D2 λk3 post-dose: EC subjects; for [11C]-L-deprenyl-D2 λk3 post-dose / receptor occupancy at 0.2 mg: N = 3; for receptor occupancy at 0.2 mg / receptor occupancy at 5 mg / receptor occupancy at 1 mg / receptor occupancy at 0.1 mg: human, AD patients, read-out: Occ (MAO-B occupancy); for receptor occupancy at 0.2 mg: 168 h; for receptor occupancy at 5 mg: 216 h, 5 mg q.d. for 6–9 days; for receptor occupancy at 5 mg / receptor occupancy at 1 mg / receptor occupancy at 0.1 mg: N = 2; for receptor occupancy at 1 mg: 336 h; for receptor occupancy at 0.1 mg: 360 h, 5 mg loading day 1 then 0.1 mg q.d. days 2–15
T1 sequence (P27338 1-520): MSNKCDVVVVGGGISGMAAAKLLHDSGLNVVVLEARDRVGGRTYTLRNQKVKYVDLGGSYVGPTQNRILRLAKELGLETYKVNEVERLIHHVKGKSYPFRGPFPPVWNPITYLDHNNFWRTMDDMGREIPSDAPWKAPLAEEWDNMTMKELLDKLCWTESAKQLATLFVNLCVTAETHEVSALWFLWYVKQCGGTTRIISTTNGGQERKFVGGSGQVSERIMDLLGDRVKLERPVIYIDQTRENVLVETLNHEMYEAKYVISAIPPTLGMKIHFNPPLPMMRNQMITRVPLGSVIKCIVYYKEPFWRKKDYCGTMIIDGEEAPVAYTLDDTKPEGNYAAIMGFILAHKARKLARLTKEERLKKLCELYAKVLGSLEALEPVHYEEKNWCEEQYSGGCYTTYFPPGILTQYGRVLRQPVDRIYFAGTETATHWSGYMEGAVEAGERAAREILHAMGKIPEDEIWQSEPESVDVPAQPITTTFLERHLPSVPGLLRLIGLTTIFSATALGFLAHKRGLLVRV
Protocol: The first dose was administered at the study centre under the supervision of study personnel. On subsequent study days, treatment compliance was assured by intake logs and tablet counting.
At baseline, each subject underwent a PET scan using [^11C]-L-deprenyl-D2 to measure MAO-B enzyme activity in the brain prior to their first dose of allocated medication. The second scan was performed at trough concentrations at steady state prior to the last drug administration. Before each scan, a cannula was inserted into a radial artery and another into an antecubital vein. A sterile phosphate buffer (pH = 7.4) containing radioligand was injected as a bolus over several seconds into the cubital vein.
A transmission scan was performed using three rotating ^68Ge rod sources. [^11C]-L-Deprenyl-D2 was injected intravenously as a bolus, and emission data were acquired over 63 min using the ECAT EXACT high-resolution system (Siemens Medical Solutions, Malvern, PA, USA). The injected radioactivity was targeted to approximately 300 MBq. The injected mass of deprenyl was to be ≤100 μg, and ≥50–100-fold lower than the typical administered dose of 5–10 mg deprenyl to patients with Parkinson’s disease. The framing was as follows: 9 frames x 10 s, 2 frames x 15 s, 3 frames x 20 s, 4 frames x 30 s, 4 frames x 60 s, 4 frames x 180 s, 7 frames x 360 s. Images were reconstructed using the standard filtered back-projection, with a 2-mm Hanning filter, a zoom factor of 2.17, and a 128 × 128 matrix, and were corrected for attenuation and scatter. A summation PET image was created for each subject and PET session by averaging across all frames. Time–activity curves were then extracted from selected ROIs.
Arterial blood samples were used for measurement of radioactivity in whole blood and plasma, as well as to determine the parent fraction of the radioligand, using a reversed-phase high-performance liquid chromatography method (Karolinska University Hospital, Solna, Stockholm, Sweden). A catheter was inserted in the radial artery, and arterial blood was collected continuously for 10 min using an automated blood sampling system at a speed of 5 mL/min. Discrete blood samples were drawn approximately 10, 15, 20, 30, 45 and 60 min after each injection of [^11C]-L-deprenyl-D2.
Time–activity data were analysed as previously described. Briefly, [^11C]-L-deprenyl-D2 was quantified by the two-tissue compartment model with three rate constants (K 1, k 2, k 3) using the PMOD 3.3 software package (PMOD Group, Zurich, Switzerland), where the tissue compartments represent the free plus non-specifically bound and specifically bound radiotracer. The outcome measure λk 3 was calculated as (K 1/k 2)*k 3, using a non-linear approach, and was used as an estimate for specific binding to MAO-B that was independent of perfusion. […] This is because λk3 is independent of perfusion and has better reproducibility than k3 alone.

[1] = set-up: method as in PMID 22451094; conditions: elderly subjects; steady-state conditions; plasma; cited from earlier work
MAO-B enzyme = molecular target: MAO-B enzyme; set-up: method as in doi:10.1016/j.jalz.2013.05.1757; conditions: MAO enzymatic activity and displacement assays; read-out: IC50 from in vitro affinity assays of the MAO-B enzyme; cited from earlier work
[2] = 1 and 5 mg daily; moderate AD; compared with placebo; cited from earlier work
[3] = 1 mg q.d. for 14 days, hippocampus
[4] = 1 mg q.d. for 14 days, parietal cortex
[5] = 1 mg q.d. for 14 days, striatum
[6] = 1 mg q.d. for 14 days, thalamus
[7] = 1 mg q.d. for 14 days, whole brain
[8] = 5 mg loading day 1 then 0.2 mg q.d. days 2–7, frontal cortex
[9] = 5 mg loading day 1 then 0.2 mg q.d. days 2–7, hippocampus
[10] = 5 mg loading day 1 then 0.2 mg q.d. days 2–7, parietal cortex
[11] = 5 mg loading day 1 then 0.2 mg q.d. days 2–7, striatum
[12] = 5 mg loading day 1 then 0.2 mg q.d. days 2–7, thalamus
[13] = 5 mg loading day 1 then 0.2 mg q.d. days 2–7, whole brain

[11C]-L-deprenyl-D2 λk3 post-dose (brain MAO-B enzyme; [3]): 0.04 (0.03–0.05)
[11C]-L-deprenyl-D2 λk3 post-dose (brain MAO-B enzyme; [4]): 0.04 (0.04–0.05)
[11C]-L-deprenyl-D2 λk3 post-dose (brain MAO-B enzyme; [5]): 0.05 (0.04–0.06)
[11C]-L-deprenyl-D2 λk3 post-dose (brain MAO-B enzyme; [6]): 0.05 (0.04–0.05)
[11C]-L-deprenyl-D2 λk3 post-dose (brain MAO-B enzyme; [7]): 0.05 (0.04–0.05)
[11C]-L-deprenyl-D2 λk3 post-dose (brain MAO-B enzyme; [8]): 0.07 (0.06–0.09)
[11C]-L-deprenyl-D2 λk3 post-dose (brain MAO-B enzyme; [9]): 0.11 (0.09–0.13)
[11C]-L-deprenyl-D2 λk3 post-dose (brain MAO-B enzyme; [10]): 0.07 (0.06–0.09)
[11C]-L-deprenyl-D2 λk3 post-dose (brain MAO-B enzyme; [11]): 0.12 (0.09–0.14)
[11C]-L-deprenyl-D2 λk3 post-dose (brain MAO-B enzyme; [12]): 0.12 (0.09–0.13)
[11C]-L-deprenyl-D2 λk3 post-dose (brain MAO-B enzyme; [13]): 0.08 (0.07–0.10)
receptor occupancy at 0.2 mg (brain MAO-B enzyme; [8]): 70.2%
receptor occupancy at 0.2 mg (brain MAO-B enzyme; [9]): 76.1%
receptor occupancy at 0.2 mg (brain MAO-B enzyme; [10]): 68.7%
receptor occupancy at 0.2 mg (brain MAO-B enzyme; [11]): 77.1%
receptor occupancy at 0.2 mg (brain MAO-B enzyme; [12]): 76.8%
receptor occupancy at 0.2 mg (brain MAO-B enzyme; [13]): 68.9%
receptor occupancy at 5 mg (brain MAO-B enzyme; frontal cortex): 77.8%
receptor occupancy at 5 mg (brain MAO-B enzyme; hippocampus): 83.3%
receptor occupancy at 5 mg (brain MAO-B enzyme; parietal cortex): 78.1%
receptor occupancy at 5 mg (brain MAO-B enzyme; striatum): 84.8%
receptor occupancy at 5 mg (brain MAO-B enzyme; thalamus): 86.3%
receptor occupancy at 5 mg (brain MAO-B enzyme; whole brain): 76.3%
receptor occupancy at 1 mg (brain MAO-B enzyme; 1 mg q.d. for 14 days, frontal cortex): 79.7%
receptor occupancy at 1 mg (brain MAO-B enzyme; [3]): 79.2%
receptor occupancy at 1 mg (brain MAO-B enzyme; [4]): 78%
receptor occupancy at 1 mg (brain MAO-B enzyme; [5]): 85%
receptor occupancy at 1 mg (brain MAO-B enzyme; [6]): 86%
receptor occupancy at 1 mg (brain MAO-B enzyme; [7]): 75.5%
receptor occupancy at 0.1 mg (brain MAO-B enzyme; frontal cortex): 56.9%
receptor occupancy at 0.1 mg (brain MAO-B enzyme; hippocampus): 53.8%
receptor occupancy at 0.1 mg (brain MAO-B enzyme; parietal cortex): 55.6%
receptor occupancy at 0.1 mg (brain MAO-B enzyme; striatum): 59.9%
receptor occupancy at 0.1 mg (brain MAO-B enzyme; thalamus): 60.4%
receptor occupancy at 0.1 mg (brain MAO-B enzyme; whole brain): 55.2%
Compound: CC(=O)N[C@H]1CC(=O)N(c2ccc(OCc3cccc(F)c3)cc2)C1 [sembragiline]
Terminal half-life [1]: 50 to 65 h
IC50 (MAO-B enzyme): 5 to 6 nM
Primary efficacy outcome on cognition (ADAS-Cog11) [2]: failed on the primary efficacy outcome on cognition
